{"source": "patent US10753901B2", "about": "“Integrated sensor for the rapid identification of bacteria using ISFETS” (priority 2012, dated 2020)", "key": {"E. coli K12 BW25113": {"tested_on": "E. coli K12 BW25113", "assay": "ISFET chip detection of potassium ion efflux after addition of antibacterial agent, positive control", "type": "cell-based", "settings": "in SM buffer, compared to negative control BL21, FIG. 12", "description": "In this example, the bacteriocin Colicin A9 was combined with E. coli K12 BW25113 as the positive control. As negative controls, Colicin A9 was combined with Staphylococcus aureus 8325, and Colicin A9 was combined with Pseudomonas aeruginosa (PA01). Experiments were performed as described above for Example 1, using the ISFET system 600.\nIn this example, the Polymyxin B antibiotic (PMB) was combined with E. coli K12 BW25113 in SM buffer as the positive control. As the negative control, Polymyxin B antibiotic (PMB) combined with E. coli K12 BL21 (DE3-Δtail) (referred to as BL21) in SM buffer. Experiments were performed as described above for Example 1, using the ISFET system 600."}, "[1]": {"tested_on": "Staphylococcus aureus 8325", "assay": "ISFET chip detection of potassium ion efflux after addition of lysostaphin, positive control", "type": "cell-based", "settings": "compared to negative controls E. coli K12 BW25113 and P. aeruginosa (PA01), FIG. 11", "source_text": "In this example, the lysostaphin from Staphylococcus simulans was combined with Staphylococcus aureus 8325 as the positive control. As negative controls, lysostaphin from Staphylococcus simulans was combined with E. coli K12 BW25113, and lysostaphin from Staphylococcus simulans was combined with Pseudomonas aeruginosa (PA01)."}}}
{"substance": "Polymyxin B", "values": [{"measurement": "ISFET output from efflux of potassium ions", "setting": "E. coli K12 BW25113", "result": "output increases"}]}
{"substance": "lysostaphin: lysostaphin from Staphylococcus simulans", "values": [{"measurement": "ISFET output from efflux of potassium ions", "setting": "[1]", "result": "output increases"}]}
